We go through one compound from US6939511B2, “Contact lens treating method and composition” (Novartis AG, priority 2000, dated 2005).

This data set relates to L929 mammalian fibroblasts. As to the kind of experiment: MEM (Minimum Essential Medium) USP elution in-vitro toxicity test. The data set is classed as cell-based. The source says:
In testing the toxicity of compounds of the compositions disclosed in solution, an MEM test procedure is used. The MEM (Minimum Essential Medium) test procedure is employed to evaluate cytoxicity using standard USP (The United States Pharmacopeial Convention) elution assays. A description of the test procedure is provided herein.
The assay provides a means of evaluating extracts of polymeric materials under direct contact conditions. This method is appropriate for high-density materials and for dose-response evaluations.
All reagents should be tissue culture grade or equivalent and should be reconstituted in accordance with manufacturer's instructions using aseptic technique.
Media Preparation: 1× MEM media is prepared by mixing 100 mL Eagle's MEM (with Earl's Salts and Sodium Bicarbonate, without L-glutamine), with 10 mL serum, 1 mL-glutamine solution, and 0.5 mL antibiotic solution (L-glutamine and antibiotic solutions are purchased at correct concentrations and stored frozen at −20° C.±2). Eagle's MEM is a sterile minimum essential medium and is available from Mediatech Celigro. Media may be stored up to 2 weeks at a temperature of 2° C.±2 after L-glutamine and antibiotics are added, or up to 1 month, if only serum is added. Preparation of 0.25% Trypsin: 10× Trypsin is placed in sterile 50 ml centrifuge tubes in 4 ml aliquots and stored frozen at −20° C.±2. Before use, a 4 ml aliquot of 10× trypsin is diluted 1:9 with 36 ml of Dulbecco's Phosphate Buffered Saline (PBS) to yield a 0.25% solution. Dulbecco's Saline is available from Mediatech Cellgro. Sterile 35 mm diameter petri dishes or 6 well tissue culture plates are used. Sterile serological pipets are employed in the procedure. Sterile absorbent material (e.g. Kay-Drys or similar material) is used. L929 mammalian fibroblasts (ATCC cell line CCL1, NCTC clone 929) are employed. […]
Exposure to Test Extracts: Exposure to test extracts is determined examining a representative prepared cell culture plate using the microscope to observe the cell monolayer for correct confluency. […]

As for `O.O.O.O.O.O.O=C([O-])c1ccccc1C(=O)O[O-].[Mg+2]` [magnesium perphthalate, magnesium monoperoxyphthalate hexahydrate], the cells dead (concentrations below 0.5%) is 2-3%. In addition, the “MEM Test Result level” value (concentrations below 0.5%, generally) is 1 (Slight Not more than 20% of cells round and loosely attached—occasional lysed cells present). Also, under “concentrations of 0.5% and above, with and without saline”, the “toxicity level MEM” value stood at 4.
